{"source": "patent US11970708B2", "about": "“Gene therapy vector with minimizing recombination, recombinant retrovirus comprising the vector, and pharmaceutical composition for preventing or treating cancer comprising the recombinant retrovirus” (ARTICURE INC., priority 2020, dated 2024)", "key": {"[1]": {"test_system": "U-87MG cells", "experiment": "Cell death of virus-infected cells upon prodrug (GCV, 5-FC) treatment, optical microscope", "set-up": "species or system human", "details": "MuLV env-based vectors, FIG. 16"}, "[2]": {"test_system": "U87MG cells", "experiment": "Western blotting of thymidine kinase (TK) and yeast cytosine deaminase (yCD) protein in infected cells", "assay_type": "cell-based, human", "description": "After 3 days of initial infection, p1(passage 1)˜p10 cells were harvested and resuspended in 100 ? of T-PER tissue extraction agent (PIERCE, 78510)+1× proteinase inhibitor. Thereafter, the cells were broken by freezing-thawing three times, and the cytoplasmic supernatant was recovered by centrifugation at 13,000 rpm for 10 minutes. After quantifying the protein amount using BCA, 20 μg of cell lysate was taken and mixed with SDS sample loading dye to 1%. After reacting for 5 minutes in a 100° C. heat block, the reaction mixture was moved to ice and reacted for 2 minutes. Then, the reactant was loaded on 10% (TK) or 13.5% (yCD) SDS-PAGE gel, followed by electrophoresis. Upon completion of the electrophoresis, the protein was transferred to a NC (nitrocellulose) membrane at 90 V for 2 hours, and then put into a blocking solution (5% skim milk in 1X TBS-T), followed by reaction at room temperature for 1 hour. […] Then, the membrane was washed 4 times with 1× TBS-T at room temperature for 10 minutes, reacted in an ECL (enhanced chemiluminescence, Bio-rad Cat No. 170-5062) solution, and then analyzed in a chemiluminescence imaging system (ChemiDoc, Biorad CA). […]"}, "[3]": {"test_system": "U-87MG cells", "experiment": "Cell death of virus-infected cells upon prodrug (GCV, 5-FC) treatment, optical microscope", "set-up": "species or system human", "details": "GaLV env-based vectors; prodrugs GCV 30 μg/ and 1 mM 5-FC; FIG. 12", "description": "Specifically, the spRRVe-TK/sRRVgp-sEF1α-hopt-yCD virus was co-transfected into the 293T cell line using PLUS reagent (Invitrogen) and lipofectamine (Invitrogen). After 2 days, the supernatant of the virus was recovered, and U-87MG cells passaged in a 6-well plate at the density of 1.5×10^5 cells/well the previous day were infected with the virus and polybran at a concentration of 8 μg/ ? for 8 hours. Five days after infection (postinfection 5d), the cell supernatant was taken and re-infected to U-87MG cells passaged in a 6-well plate at the density of 1.5×10^5 cells/well the previous day (p1), and then sequentially infected up to p4 in the same way. Cells at each stage of infection were treated with trypsin-EDTA to make single cells, and passaged in a 12-well plate at the density of 1.5×10^5 cells/well, and from the next day after the passage, 30 μg/ ? of GCV and 1 mM 5-FC were treated for […], respectively, to confirm cell death.\nSpecifically, the virus containing spRRVe-F4-hopt-yCD/sRRVgp-TK, spRRVe-F4-hopt-yCD/sRRVgp-F1-TK, spRRVe-F4-hopt-yCD/sRRVgp-F2-TK, spRRVe-F4-hopt-yCD/sRRVgp-F3-TK and spRRVe-F4-hopt-yCD/sRRVgp-F4-TK was co-transfected into the 293T cell line using PLUS reagent (Invitrogen) and lipofectamine (Invitrogen). […]"}, "[4]": {"test_system": "brain tumor cell line U87MG", "experiment": "Recombination type analysis by genomic DNA PCR after serial virus infection (passages)", "assay_type": "cell-based, human", "details": "spRRVe-yCD/sRRVgp-TK virus", "description": "After 3 days of initial infection, the cultured supernatant was taken and re-infected to new U87MG, and the infected U87MG cell line was recovered and genomic DNA was isolated.\nThe replicating-retrovirus vector for gene therapy is highly likely to cause recombination because the size of genomic RNA is increased by the introduced foreign gene and non-homologous sequences are added. Therefore, in order to construct an efficient and stable replicating-retrovirus vector for gene therapy, it is very important to confirm the presence and degree of recombination at the development stage.\nSpecifically, polymerase chain reaction was performed using the primers listed in Table 1 below capable of specifically amplifying the env vector. […] 100 ng of genomic DNA, 1X reaction buffer, 0.25 mM dNTP, 0.2 pmol forward primer, 0.2 pmol reverse primer, and 0.2 unit Taq polymerase were added to a PCR reaction tube, and sterilized distilled water was added to make the final volume of 20 ? . Then, After PCR was performed under the conditions shown in Table 1 below, the amplified DNA was loaded on a 1% agarose gel to confirm the PCR amplification product, thereby confirming the infectivity of the virus and whether the recombination occurred. […]"}}}
{"substance": "sRRVe-TK: MuLV env vector, 646 bp MCMV promoter, TK gene (SEQ. ID. NO: 33)", "values": [{"measurement": "cell death upon prodrug treatment", "setting": "[1]", "result": "cell death is induced"}, {"measurement": "thymidine kinase (TK) protein expression", "setting": "[2]; MuLV env-based vectors, FIG. 15", "result": "continuously expressed"}]}
{"substance": "spRRVe-TK: GaLV env vector, 646 bp MCMV promoter, TK gene (SEQ. ID. NO: 27)", "values": [{"measurement": "cell death upon prodrug treatment", "setting": "[3]", "result": "cell death is induced"}, {"measurement": "thymidine kinase (TK) protein expression", "setting": "[2]; GaLV env-based vectors with sRRVgp-sEF1α-hopt-yCD, 0.1 MOI, p1-p10, FIG. 10", "result": "continuously expressed"}]}
{"substance": "spRRVe-yCD: GaLV env vector with full-length MCMV promoter and yCD gene (SEQ. ID. NO: 25)", "values": [{"measurement": "virus proliferation and infection (PCR products detected)", "setting": "[4]; day 3 of initial infection and passages 1 to 3", "result": "virus proliferation and infection progressed"}, {"measurement": "passage from which PCR products smaller than the expected amplification product were detected (recombination)", "setting": "[4]; full-length MCMV promoter, 2E7 gc, GaLV 1624F/MFGSacIR primers, up to passage 3", "result": 2, "unit": "passage"}]}
